Consider 9 compounds from PubChem BioAssay (NCI).

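Assay format: 96-well plates, 48-hour exposure. GI50 marks 50% less growth. Definition used: TGI = concentration required for complete inhibition of growth.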

What all share (test): NCI tumour cell line growth inhibition, 48 h
Assay [1] concerns SK-OV-3 ovarian.
Assay [2] has as its system CCRF-CEM leukemia.
Assay [3] deals with UACC-257 melanoma.
Assay [4] deals with HCT-116 colon.
Assay [5] deals with SNB-19 CNS.
Assay [6] concerns OVCAR-3 ovarian.
The subject of assay [7] is A549 NSCLC.
The subject of assay [8] is HT29 colon.
Assay [9] deals with OVCAR-4 ovarian.
Assay [10] deals with HOP-62 NSCLC.

Take `CCCCN(CCCC)c1ccc(C(=N)c2ccc(N(CCCC)CCCC)cc2)cc1`: the GI50 in assay [1] is 1.19 µM; in assay [2], 0.557 µM; in assay [3] it was 0.561 µM; in assay [4] it was 0.339 µM; in assay [5] it was 0.468 µM; in assay [6], 0.283 µM. Besides, the GI50 in assay [7] is 0.72 µM; in [8], 0.282 µM; in assay [9], 0.373 µM; in [10], 0.748 µM. Further, the TGI in [1] was found to be 2.47 µM; in [2], 2.27 µM; in assay [3], 1.63 µM; in [4], 1.31 µM; in assay [5], 1.91 µM; in [6], 0.946 µM. The TGI was 2.07 µM in [7], 1.03 µM in assay [8], 1.4 µM in [9] and 2.11 µM in assay [10].

As for `CN1CC[C@@H](c2c(O)cc(O)c3c(=O)cc(-c4ccccc4Cl)oc23)[C@@H]1CO`, the GI50 in assay [1] was 1.4 µM; in assay [2], 0.259 µM; in assay [3], 0.296 µM; in assay [4], 0.2 µM; in [5] it was 0.344 µM; in assay [6] it was 0.278 µM. Also, the GI50 is 0.368 µM in assay [7], 0.442 µM in assay [8], 0.709 µM in assay [9] and 0.304 µM in assay [10]. Further, the TGI is 9.91 µM in [1]; over 3.13 µM in assay [2]; 1.36 µM in assay [3]; over 10 µM in assay [4]; over 10 µM in assay [5]; 2.17 µM in [6]. The TGI in assay [7] was over 10 µM; in assay [8] it was 6.66 µM; in assay [9], over 9.29 µM; in assay [10] it was 1.2 µM.

For `COc1c(Cl)cc(NC(=S)C#N)cc1Cl`, the TGI in assay [1] is over 74.7 µM; in assay [2], over 100 µM; in assay [3] it was 53.9 µM; in assay [4], 31.6 µM; in [5], over 100 µM; in assay [6], over 62.8 µM. Further, the TGI in [7] was over 100 µM; in [8] it was over 65.8 µM; in [9], 97.9 µM; in assay [10], over 50.9 µM.

On to `COc1ccc(C(=O)c2cc3c(N)c(C(=O)Nc4cccc5ccccc45)sc3nc2C)cc1`, for which the GI50 in [1] is 0.429 µM; in [2], 0.199 µM; in [3], over 50 µM; in [4] it was 0.18 µM; in [5], 0.208 µM; in [6], 0.156 µM. The GI50 is 0.266 µM in assay [7], 0.183 µM in assay [8], 1.15 µM in [9] and 0.314 µM in assay [10]. Further, the TGI in [1] is over 50 µM; in assay [2], over 50 µM; in assay [3] it was over 50 µM; in assay [4], over 18.9 µM; in assay [5], over 50 µM; in assay [6] it was over 50 µM. The TGI in [7], in assay [8], in [9] and in assay [10] was over 50 µM in each case.

Take `O=CN/C=C/c1ccc(O)c(O)c1`: the TGI in [1], in assay [2], in [3], in assay [4], in assay [5] and in assay [6] was over 100 µM in each case. Besides, the TGI in assay [7], in assay [8], in [9] and in [10] was over 100 µM throughout.

With `O=CC1CCCc2ccccc21` (stereo not given), the TGI in assay [1] is over 100 µM; in assay [2], over 72 µM; in assay [3], over 100 µM; in assay [4] it was over 77.2 µM; in assay [5] it was over 100 µM; in assay [6] it was over 100 µM. The TGI in assay [7], in assay [8], in assay [9] and in [10] was over 100 µM each time.

With `COc1cccc(-n2ncc3c(N/N=C/c4ccncc4)ncnc32)c1`, the GI50 was 1.7 µM in assay [1]; over 13.4 µM in [2]; over 25 µM in assay [3]; 2.8 µM in [4]; over 25 µM in assay [5]; 1.9 µM in assay [6]. The GI50 in assay [7] is over 14.5 µM; in assay [8], 2.24 µM; in assay [9], over 25 µM; in assay [10] it was over 25 µM. For the same compound, the TGI in assay [1], in [2], in [3], in assay [4], in assay [5] and in [6] was over 25 µM each time. The TGI in assay [7], in [8], in assay [9] and in assay [10] was over 25 µM each time.

For `O=C(COc1ccc(/C=C2\Oc3ccccc3C2=O)cc1)Nc1nc2c(s1)CCCC2`, the GI50 in assay [1] was 50.2 µM; in assay [2] it was 0.148 µM; in assay [3], 0.0449 µM; in assay [4], 9.94 µM; in [5] it was 46.9 µM; in [6], 1.83 µM. Moreover, the GI50 in assay [7] is 3.09 µM; in assay [8], 3.21 µM; in assay [9], 13.1 µM; in assay [10] it was 22.5 µM. The TGI in assay [1] is over 100 µM; in assay [2], 0.309 µM; in assay [3], 0.835 µM; in [4], over 100 µM; in assay [5], over 100 µM; in [6] it was 25.5 µM. In addition, the TGI in assay [7] was 33 µM; in [8] it was over 39.4 µM; in [9], over 100 µM; in assay [10], 97.9 µM.

On to `Cn1cc(C2=C(c3cccc(OCC(O)CO)c3)C(=O)NC2=O)c2ccccc21` (stereo not given), for which the GI50 in assay [1], in [2], in assay [3], in [4], in assay [5] and in assay [6] was over 25 µM each time. Also, the GI50 in [7], in [8], in [9] and in assay [10] was over 25 µM each time. The TGI in [1], in assay [2], in assay [3], in assay [4], in assay [5] and in assay [6] was over 25 µM each time. Besides, the TGI in [7], in assay [8], in [9] and in assay [10] was over 25 µM in each case.
